From patent US20220274967A1, “BCAT MODULATION” (Icagen, LLC, priority 2019, published 2022)

Each compound was assayed against T1, BCAT1 (Homo sapiens, UniProt P54687) (assay: BCAT1 enzyme inhibition (human), Glutamate Glo luminescence).
T1 sequence (P54687 1-386): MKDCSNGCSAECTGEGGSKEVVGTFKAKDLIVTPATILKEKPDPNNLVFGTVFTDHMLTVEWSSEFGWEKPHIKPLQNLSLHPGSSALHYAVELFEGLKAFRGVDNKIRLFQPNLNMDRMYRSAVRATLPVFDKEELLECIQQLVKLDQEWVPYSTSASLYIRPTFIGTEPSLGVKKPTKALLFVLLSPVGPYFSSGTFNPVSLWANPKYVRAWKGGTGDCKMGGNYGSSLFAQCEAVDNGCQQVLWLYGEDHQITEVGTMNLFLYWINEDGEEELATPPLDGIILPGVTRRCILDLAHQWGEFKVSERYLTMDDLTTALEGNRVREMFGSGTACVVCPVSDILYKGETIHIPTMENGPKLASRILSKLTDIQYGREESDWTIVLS
Format: biochemical
Procedure, shortened: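 BCAT1 enzyme (0.06 ug/ml final) was preincubated with compound (3-0.0001 μM, 0.3% DMSO) for 10 or 60 min at room temperature in 50 mM Tris/0.05% TWEEN-20. The reaction then ran 10 min with 300 μM L-leucine and 250 μM alpha-ketoglutaric acid, was acid-quenched, and glutamate was read by luminescence. IC50 came from a 4-parameter fit, normalized to 10 μM VS558CSA inhibition.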
With `C#Cc1ccccc1-c1nc2cc(C(=O)NC)ccc2n1[C@H]1CCC[C@@H](NC(=O)c2ccc(Br)s2)C1` [Compound 151] the IC50 was 500 to 1000 nM. For `CNC(=O)c1ccc2c(c1)nc(-c1ccccn1)n2[C@@H]1CCC[C@H](NC(=O)c2ccc(C#N)s2)C1` [Compound 112], the IC50 was ≥ 1000 nM. `CNC(=O)c1ccc2c(c1)nc(-c1ccccc1C#N)n2[C@H]1CCC[C@@H](NC(=O)c2ccc(C#N)s2)C1` [Compound 138] showed an IC50 of 500 to 1000 nM. In the case of `CNC(=O)c1cc2nc(-c3ccccc3F)n([C@H]3CCC[C@@H](NC(=O)c4ccc(Br)s4)C3)c2cc1F` [Compound 207], the IC50 is reported as < 100 nM. In the case of `CNC(=O)c1ccc2c(c1)nc(-c1ccccc1C)n2[C@H]1CCC[C@@H](NC(=O)c2ccc(Br)s2)C1` [Compound 135], the IC50 is reported as ≥ 1000 nM. With `CNC(=O)c1ccc2c(c1)nc(-c1cccc(F)c1O)n2[C@H]1CCC[C@@H](NC(=O)c2ccc(Br)s2)C1` [Compound 163] the IC50 was ≥ 1000 nM. `CNC(=O)c1ccc2c(c1)nc(-c1ccccc1C)n2[C@H]1CCC[C@@H](NC(=O)c2ccc(C#N)s2)C1` [Compound 134] was tested, and the IC50 was ≥ 1000 nM. For `CNC(=O)c1ccc2c(c1)nc(-c1ccccc1C#N)n2[C@H]1CCC[C@@H](NC(=O)c2ccc(C#N)s2)C1` [Compound 139], the IC50 was 100 to 500 nM. `CNC(=O)c1cc2nc(-c3ccccc3C)n([C@H]3CCC[C@@H](NC(=O)c4ccc(Br)s4)C3)c2cc1F` [Compound 208] gave an IC50 of 100 to 500 nM. In the case of `CNC(=O)c1cc2nc(-c3ccccc3C#N)n([C@H]3CCC[C@@H](NC(=O)c4ccc(Br)s4)C3)c2cc1F` [Compound 157], the IC50 is reported as < 100 nM. `COC(=O)c1ccc2c(c1)nc(-c1ccccn1)n2[C@@H]1CCC[C@H](NC(=O)c2ccc(Br)s2)C1` [Compound 109] was tested, and the IC50 was ≥ 1000 nM. In the case of `CNC(=O)c1ccc2c(c1)nc(-c1ccccc1C=O)n2[C@H]1CCC[C@@H](NC(=O)c2ccc(Br)s2)C1` [Compound 161], the IC50 is reported as 100 to 500 nM. Compound `CNC(=O)c1ccc2c(c1)nc(-c1c(O)cccc1F)n2[C@H]1CCC[C@@H](NC(=O)c2ccc(Br)s2)C1` [Compound 184] has an IC50 of 100 to 500 nM. `CNC(=O)c1ccc2c(c1)nc(-c1ccccc1C#N)n2[C@H]1CCC[C@@H](NC(=O)c2ccc(Br)s2)C1` [Compound 137] was tested, and the IC50 was < 100 nM. Work on `COC(=O)c1cc2nc(-c3ccccn3)n([C@@H]3CCC[C@H](NC(=O)c4ccc(Br)s4)C3)c2cn1` [Compound 291] yielded an IC50 of 100 to 500 nM. Work on `CNC(=O)c1ccc2c(c1)nc(-c1ccccc1F)n2[C@H]1CCC[C@@H](NC(=O)c2ccc(Br)s2)C1` [Compound 145] yielded an IC50 of 100 to 500 nM. `CNC(=O)c1cc2nc(-c3ccccn3)n([C@H]3CCC[C@@H](NC(=O)c4ccc(Br)s4)C3)c2cc1F` [Compound 155] was tested, and the IC50 was 100 to 500 nM. For `CNC(=O)c1ccc2c(c1)nc(-c1ccccc1C#N)n2[C@H]1CCC[C@@H](NC(=O)c2ccc(Br)s2)C1` [Compound 136], the IC50 was 100 to 500 nM. With `CNC(=O)c1ccc2c(c1)nc(-c1cccc(F)c1)n2[C@H]1CCC[C@@H](NC(=O)c2ccc(Br)s2)C1` [Compound 154] the IC50 was ≥ 1000 nM. Compound `CNC(=O)c1cc2nc(-c3ccccn3)n([C@H]3CCC[C@@H](NC(=O)c4ccc(Br)s4)C3)c2cn1` [Compound 292] has an IC50 of 100 to 500 nM.
